# Biological target: IDH1 R132H (Homo sapiens (Human), UniProt O75874, R132H)
# Test: Assays for IDH1 R132H Inhibitors (NADPH/aKG, resazurin detection)
# Format: biochemical
# Conditions: IDH1 R132H enzyme, Table 2; read-out: IDHR132H Activity
# Method in brief: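 Substrate mix held 8 uM NADPH plus 2 mM aKG; buffer was 20 mM Tris pH 7.5 with 150 mM NaCl, 10 mM MgCl2, 0.03% BSA. After 50 min room-temperature reaction, NADPH remaining was detected with 30 μM resazurin mix over 5 min.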
# Sequence of IDH1 R132H (O75874 whole entry R132H): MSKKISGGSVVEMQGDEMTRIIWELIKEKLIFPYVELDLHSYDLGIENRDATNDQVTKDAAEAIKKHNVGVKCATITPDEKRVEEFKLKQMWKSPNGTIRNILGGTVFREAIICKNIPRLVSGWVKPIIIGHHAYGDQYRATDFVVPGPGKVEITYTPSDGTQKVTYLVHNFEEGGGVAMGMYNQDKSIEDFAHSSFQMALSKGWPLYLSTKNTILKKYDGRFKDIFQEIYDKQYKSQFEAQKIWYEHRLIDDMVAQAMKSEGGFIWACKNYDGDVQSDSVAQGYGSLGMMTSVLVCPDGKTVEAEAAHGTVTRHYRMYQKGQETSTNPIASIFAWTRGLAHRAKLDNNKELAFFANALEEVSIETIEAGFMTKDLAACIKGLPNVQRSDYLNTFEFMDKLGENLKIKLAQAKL
row,Structure (SMILES),IC50 [nM]
1,COc1cccc(CC(=O)N2CCN(c3nc(C4CC4)c4c(c3C#N)CC(C)(C)OC4)C[C@H]2C(C)C)c1 [Compound 254],500 to 1000
2,COCCNC(=O)N1CCN(c2nc(C3CC3)c3c(c2C#N)CC(C)(C)OC3)C[C@H]1C(C)C [Compound 353],500 to 1000
3,"C[C@@H]1CN(c2nc(C3CCCCC3)c3c(c2C#N)CCOC3)CCN1C(=O)C1CC1 [Compound 375, (R)-8-cyclohexyl-6-(4-(cyclopropanecarbonyl)-3-methylpiperazin-1-yl)-3,4-dihydro-1H-pyrano[3,4-c]pyridine-5-carbonitrile]",1000 to 10000
4,"C[C@@H]1CN(c2nc(C3CCCCC3)c3c(c2C#N)CCOC3)CCN1C(=O)c1ccsc1 [Compound 242, (R)-8-cyclohexyl-6-(3-methyl-4-(thiophene-3-carbonyl)piperazin-1-yl)-3,4-dihydro-1H-pyrano[3,4-c]pyridine-5-carbonitrile]",1000 to 10000
5,"CC(C)[C@@H]1CN(c2nc(C3CC3)c3c(c2C#N)CC(C)(C)OC3)CCN1S(C)(=O)=O [Compound 323, (R)-8-cyclopropyl-6-(3-isopropyl-4-(methylsulfonyl)piperazin-1-yl)-3,3-dimethyl-3,4-dihydro-1H-pyrano[3,4-c]pyridine-5-carbonitrile]",1000 to 10000
6,"COc1ccc(OC(=O)N2CCN(c3nc(C(C)C)c4c(c3C#N)CCOC4)CC2)cc1 [Compound 103, 4-methoxyphenyl 4-(5-cyano-8-isopropyl-3,4-dihydro-1H-pyrano[3,4-c]pyridin-6-yl)piperazine-1-carboxylate]",1000 to 10000
7,"N#Cc1c(N2CCN(C(=O)Cc3ccccc3)CC2)nc(C2CCCCC2)c2c1CCOC2 [Compound 131, 8-cyclohexyl-6-(4-(2-phenylacetyl)piperazin-1-yl)-3,4-dihydro-1H-pyrano[3,4-c]pyridine-5-carbonitrile]",1000 to 10000
8,"CC1CN(c2nc(C3CCCCC3)c3c(c2C#N)CC(C)(C)OC3)CCN1C(=O)c1ccco1 (stereo not drawn) [Compound 168, 8-cyclohexyl-6-(4-(furan-2-carbonyl)-3-methylpiperazin-1-yl)-3,3-dimethyl-3,4-dihydro-1H-pyrano[3,4-c]pyridine-5-carbonitrile]",1000 to 10000
9,"COc1ccc(NC(=O)N2CCN(c3nc(C4CC4)c4c(c3C#N)CC(C)(C)OC4)C[C@H]2C(C)C)cc1 [Compound 316, (R)-4-(5-cyano-8-cyclopropyl-3,3-dimethyl-3,4-dihydro-1H-pyrano[3,4-c]pyridin-6-yl)-2-isopropyl-N-(4-methoxyphenyl)piperazine-1-carboxamide]",1000 to 10000
10,"COC(=O)CN1CCN(c2nc(C3CCCCC3)c3c(c2C#N)CCOC3)C[C@H]1C [Compound 342, (R)-methyl 2-(4-(5-cyano-8-cyclohexyl-3,4-dihydro-1H-pyrano[3,4-c]pyridin-6-yl)-2-methylpiperazin-1-yl)acetate]",1000 to 10000
11,CC[C@@H]1CN(c2nc(C3CC3)c3c(c2C#N)CC(C)(C)OC3)CCN1C(=O)Cc1cccs1 [Compound 236],< 500
12,"C[C@@H]1CN(c2nc(C3CCCCC3)c3c(c2C#N)CCOC3)C[C@H](C)N1C(=O)c1ccco1 [Compound 128, 8-cyclohexyl-6-((3S,5R)-4-(furan-2-carbonyl)-3,5-dimethylpiperazin-1-yl)-3,4-dihydro-1H-pyrano[3,4-c]pyridine-5-carbonitrile]",1000 to 10000
13,"CC(C)c1nc(N2CCN(C(=O)C(=O)c3ccccc3)[C@H](C)C2)c(C#N)c2c1COC(C)(C)C2 [Compound 157, (R)-8-isopropyl-3,3-dimethyl-6-(3-methyl-4-(2-oxo-2-phenylacetyl)piperazin-1-yl)-3,4-dihydro-1H-pyrano[3,4-c]pyridine-5-carbonitrile]",1000 to 10000
14,"CC(C)c1nc(N2CCN(C(=O)c3ccco3)CC2)c(C#N)c2c1CC(C)(C)CC2 [Compound 116, 3-(4-(furan-2-carbonyl)piperazin-1-yl)-1-isopropyl-7,7-dimethyl-5,6,7,8-tetrahydroisoquinoline-4-carbonitrile]",1000 to 10000
15,"C[C@@H]1CN(c2nc(C3CCCCC3)c3c(c2C#N)CCOC3)CCN1C(=O)NC1CC1 [Compound 360, (R)-4-(5-cyano-8-cyclohexyl-3,4-dihydro-1H-pyrano[3,4-c]pyridin-6-yl)-N-cyclopropyl-2-methylpiperazine-1-carboxamide]",1000 to 10000
16,"COc1ccc(NC(=O)N2CCN(c3nc(C4CCCCC4)c4c(c3C#N)CCOC4)C[C@H]2C)cc1 [Compound 299, (R)-4-(5-cyano-8-cyclohexyl-3,4-dihydro-1H-pyrano[3,4-c]pyridin-6-yl)-N-(4-methoxyphenyl)-2-methylpiperazine-1-carboxamide]",1000 to 10000

row,Structure (SMILES),IC50 [nM]
1,"CCCNC(=O)N1CCN(c2nc(C3CCCCC3)c3c(c2C#N)CCOC3)C[C@H]1C [Compound 378, (R)-4-(5-cyano-8-cyclohexyl-3,4-dihydro-1H-pyrano[3,4-c]pyridin-6-yl)-2-methyl-N-propylpiperazine-1-carboxamide]",1000 to 10000
2,CCOC(=O)[C@H]1CN(c2nc(C(C)C)c3c(c2C#N)CC(C)(C)OC3)CCN1C(=O)c1ccoc1 [Compound 410],500 to 1000
3,CC(C)[C@@H]1CN(c2nc(C3CC3)c3c(c2C#N)CC(C)(C)OC3)CCN1C(=O)COCCO [Compound 348],1000 to 10000
4,"CC(C)c1nc(N2CCN(C(=O)c3ccco3)[C@H](C)C2)c(C#N)c2c1COC(C)(C)C2 [Compound 148, (R)-6-(4-(furan-2-carbonyl)-3-methylpiperazin-1-yl)-8-isopropyl-3,3-dimethyl-3,4-dihydro-1H-pyrano[3,4-c]pyridine-5-carbonitrile]",1000 to 10000
5,COc1ccccc1CC(=O)N1CCN(c2nc(C3CC3)c3c(c2C#N)CC(C)(C)OC3)C[C@H]1C(C)C [Compound 208],500 to 1000
6,"CC(C)c1nc(N2CCN(C(=O)Cc3cccc(F)c3)[C@H](C(C)C)C2)c(C#N)c2c1COC(C)(C)C2 [Compound 234, (R)-6-(4-(2-(3-fluorophenyl)acetyl)-3-isopropylpiperazin-1-yl)-8-isopropyl-3,3-dimethyl-3,4-dihydro-1H-pyrano[3,4-c]pyridine-5-carbonitrile]",1000 to 10000
7,"CC(C)[C@@H]1CN(c2nc(C3CC3)c3c(c2C#N)CC(C)(C)OC3)CCN1C(=O)Cn1ncc2ccccc21 [Compound 405, (R)-6-(4-(2-(1H-indazol-1-yl)acetyl)-3-isopropylpiperazin-1-yl)-8-cyclopropyl-3,3-dimethyl-3,4-dihydro-1H-pyrano[3,4-c]pyridine-5-carbonitrile]",1000 to 10000
8,"C[C@@H]1CN(c2nc(C3CCCCC3)c3c(c2C#N)CCOC3)CCN1C(=O)Cc1cccnc1 [Compound 260, (R)-8-cyclohexyl-6-(3-methyl-4-(2-(pyridin-3-yl)acetyl)piperazin-1-yl)-3,4-dihydro-1H-pyrano[3,4-c]pyridine-5-carbonitrile]",1000 to 10000
9,"CCc1nc(N2CCN(C(=O)c3ccoc3)[C@H](C(C)C)C2)c(C#N)c2c1COC(C)(C)C2 [Compound 414, (R)-8-ethyl-6-(4-(furan-3-carbonyl)-3-isopropylpiperazin-1-yl)-3,3-dimethyl-3,4-dihydro-1H-pyrano[3,4-c]pyridine-5-carbonitrile]",1000 to 10000
10,"CCC1CN(c2nc(C3CCCCC3)c3c(c2C#N)CCOC3)CCN1C(=O)c1ccco1 (stereo not drawn) [Compound 174, 8-cyclohexyl-6-(3-ethyl-4-(furan-2-carbonyl)piperazin-1-yl)-3,4-dihydro-1H-pyrano[3,4-c]pyridine-5-carbonitrile]",1000 to 10000
11,"C[C@@H]1CN(c2nc(C3CCCC3)c3c(c2C#N)CC(C)(C)OC3)C[C@H](C)N1C(=O)c1ccoc1 [Compound 146, 8-cyclopentyl-6-((3S,5R)-4-(furan-3-carbonyl)-3,5-dimethylpiperazin-1-yl)-3,3-dimethyl-3,4-dihydro-1H-pyrano[3,4-c]pyridine-5-carbonitrile]",1000 to 10000
12,"Cc1ccc(S(=O)(=O)N2CCN(c3nc(C4CC4)c4c(c3C#N)CC(C)(C)OC4)C[C@H]2C(C)C)cc1 [Compound 302, (R)-8-cyclopropyl-6-(3-isopropyl-4-tosylpiperazin-1-yl)-3,3-dimethyl-3,4-dihydro-1H-pyrano[3,4-c]pyridine-5-carbonitrile]",1000 to 10000
13,"CCOc1ccc(NC(=O)N2CCN(c3nc(C4CC4)c4c(c3C#N)CC(C)(C)OC4)C[C@H]2C(C)C)cc1 [Compound 282, (R)-4-(5-cyano-8-cyclopropyl-3,3-dimethyl-3,4-dihydro-1H-pyrano[3,4-c]pyridin-6-yl)-N-(4-ethoxyphenyl)-2-isopropylpiperazine-1-carboxamide]",1000 to 10000
14,"CC(C)[C@@H]1CN(c2nc(C3CCC3)c3c(c2C#N)CC(C)(C)OC3)CCN1C(=O)Cc1cccs1 [Compound 289, (R)-8-cyclobutyl-6-(3-isopropyl-4-(2-(thiophen-2-yl)acetyl)piperazin-1-yl)-3,3-dimethyl-3,4-dihydro-1H-pyrano[3,4-c]pyridine-5-carbonitrile]",< 500
15,"CC1CN(c2nc(C3CCCC3)c3c(c2C#N)CC(C)(C)OC3)CCN1C(=O)c1ccco1 (stereo not drawn) [Compound 147, 8-cyclopentyl-6-(4-(furan-2-carbonyl)-3-methylpiperazin-1-yl)-3,3-dimethyl-3,4-dihydro-1H-pyrano[3,4-c]pyridine-5-carbonitrile]",1000 to 10000

# Same assay, conditions: IDH1 R132H enzyme, Table 3; read-out: R132H IC50
row,Structure (SMILES),IC50 [nM]
1,"COCCC(=O)N1CCN(c2nc(C3CC3)c3c(c2C#N)CCN(C(=O)CCO)C3)C[C@H]1C1CC1 [Compound 501, (R)-1-cyclopropyl-3-(3-cyclopropyl-4-(3-methoxypropanoyl)piperazin-1-yl)-′7-(3-hydroxypropanoyl)-5,6,7,8-tetrahydro-2,7-naphthyridine-4-carbonitrile]",500 to 1000
2,"CC1(C)Cc2c(C#N)c(N3CCN(C(=O)CC(F)(F)F)C(CC(F)(F)F)C3)nc(C3CC3)c2CO1 (stereo not drawn) [Compound 470, 8-cyclopropyl-3,3-dimethyl-6-(3-(2,2,2-trifluoroethyl)-4-(3,3,3-trifluoropropanoyl)piperazin-1-yl)-3,4-dihydro-1H-pyrano[3,4-c]pyridine-5-carbonitrile]",500 to 1000

# From US9662327B2 (AGIOS PHARMACEUTICALS, INC, priority 2011, dated 2017)
